Values quoted from earlier work as cited in patent publication EP0268925B1, “Safened pesticidal resin compositions for controlling soil borne pests and process for the preparation thereof” (priority 1986, dated 1988).

Legend:
rats = conditions: technical material
[1] = inhalation hazard

Compound	acute oral LD50 value in rats (rats)	inhalation LD50 [1]
CCOP(=S)(OCC)SCSCC [phorate, O,O-diethyl-S-(ethylthiomethyl)phosphorodithioate]	1.6-3.7 mg technical/kg	35 mg/kg body weight
CCOP(=S)(OCC)SCSC(C)(C)C [terbufos, O,O-diethyl S-[[(1,1-dimethylethyl)thio]methyl]phosphorodithioate]	1.6 mg technical/kg	35 mg/kg body weight
